In patent publication US11261177B2, “Benzoxazinone derivatives useful as herbicides” (REDAG CROP PROTECTION LTD, priority 2017, dated 2022) one finds pest or weed control data, which are given here for 9 compounds.

Holding throughout (format): in vivo
For experiment [1], the system named is Stellaria media—Chickweed. Put plainly: Post-emergence herbicidal assay, 96 cell trays, glasshouse. The conditions noted are these: 168 h, assessed 7 days after treatment, read-out: % control of plant growth; for pest or weed control at 200 g/ha: 0.2 kg/ha; for pest or weed control at 1000 g/ha: 1 kg/ha; for pest or weed control at 5000 g/ha: 5 kg/ha. Here is the method: (§1) The compounds were screened at three concentrations (0.2, 1 and 5 kg/ha) against 2 weed species (Stellaria media—Chickweed and Lolium perenne). The seeds were sown in the cells of 96 cell trays (4-6 seeds per cell). For the pre-emergence assay, 75 μL of a suspension of the test compound, at the above doses, was added on top of the soil 1 day after sowing. For the post-emergence assay, the seedlings were sprayed with 200 μL of a suspension of the test compound two weeks after sowing. The formulation used is 25% acetone and 75% water/0.01% Tween 20. Each treatment was replicated three times. The plants were kept in a glasshouse (uncontrolled conditions) and assessed 7 days after treatment. A small number of compounds were tested in a first trial. A larger number of compounds were tested in a second trial. The assessment was based on the % control of plant growth in each cell.

The subject of experiment [2] is Lolium perenne. Described as above. Conditions: 168 h, Lollium, assessed 7 days after treatment, read-out: % control of plant growth; for pest or weed control at 200 g/ha: 0.2 kg/ha; for pest or weed control at 1000 g/ha: 1 kg/ha; for pest or weed control at 5000 g/ha: 5 kg/ha. The method, then: as §1
Experiment [3] deals with Stellaria media—Chickweed. Briefly: Pre-emergence herbicidal assay, 96 cell trays, glasshouse. The conditions noted are these: 168 h, assessed 7 days after treatment, read-out: % control of plant growth; for pest or weed control at 200 g/ha: 0.2 kg/ha; for pest or weed control at 1000 g/ha: 1 kg/ha; for pest or weed control at 5000 g/ha: 5 kg/ha. Here is the method: as §1

The subject of experiment [4] is Lolium perenne. The description is as above. The conditions noted are these: 168 h, Lollium, assessed 7 days after treatment, read-out: % control of plant growth; for pest or weed control at 200 g/ha: 0.2 kg/ha; for pest or weed control at 1000 g/ha: 1 kg/ha; for pest or weed control at 5000 g/ha: 5 kg/ha. The method, then: as §1

For the compound `C#CCN1C(=O)C2(CC2)Oc2cc(F)c(N3C(=O)C(=O)N(CCC)C3=S)cc21` [Example 2, 1-(7-Fluoro-3-oxo-4-(prop-2-yn-1-yl)-3,4-dihydrospiro[benzo[b][1,4]oxazine-2,1′-cyclopropan]-6-yl)-3-propyl-2-thioxoimidazolidine-4,5-dione], the pest or weed control at 200 g/ha is 20 to 80% in experiment [1] (first trial (Table 1)); 20 to 80% in experiment [1] (second trial (Table 2)); under 20% in the experiment with Lolium perenne [2] (first trial (Table 1)); under 20% in the experiment on Lolium perenne [2] (second trial (Table 2)); 20 to 80% in experiment [3] (first trial (Table 1)); 20 to 80% in experiment [3] (second trial (Table 2)). The pest or weed control at 200 g/ha in the experiment on Lolium perenne [4] (first trial (Table 1)) and in the experiment with Lolium perenne [4] (second trial (Table 2)) was under 20% each time. In addition, the pest or weed control at 1000 g/ha in experiment [1] (first trial (Table 1)) was 20 to 80%; in experiment [1] (second trial (Table 2)), 20 to 80%; in the experiment with Lolium perenne [2] (first trial (Table 1)), under 20%; with Lolium perenne [2] (second trial (Table 2)) it was under 20%; in experiment [3] (first trial (Table 1)), 20 to 80%; in experiment [3] (second trial (Table 2)), 20 to 80%. The pest or weed control at 1000 g/ha with Lolium perenne [4] (first trial (Table 1)) and with Lolium perenne [4] (second trial (Table 2)) was under 20% throughout. For the same compound, the pest or weed control at 5000 g/ha in experiment [1] (first trial (Table 1)) is 20 to 80%; in experiment [1] (second trial (Table 2)), 20 to 80%; with Lolium perenne [2] (first trial (Table 1)), under 20%; with Lolium perenne [2] (second trial (Table 2)) it was under 20%; in experiment [3] (first trial (Table 1)), 20 to 80%; in experiment [3] (second trial (Table 2)), 20 to 80%. Further, the pest or weed control at 5000 g/ha in the experiment with Lolium perenne [4] (first trial (Table 1)) and with Lolium perenne [4] (second trial (Table 2)) was under 20% in each case.
For `C#CCN1C(=O)C2(CC2)Oc2cc(F)c(-n3nc(C(C)(C)C)oc3=O)cc21` [Example 3, 6-(5-(tert-Butyl)-2-oxo-1,3,4-oxadiazol-3(2H)-yl)-7-fluoro-4-(prop-2-yn-1-yl)spiro[benzo[b][1,4]oxazine-2,1′-cyclopropan]-3(4H)-one], the pest or weed control at 200 g/ha in experiment [1] (first trial (Table 1)) was 20 to 80%; in the experiment on Lolium perenne [2] (first trial (Table 1)) it was 20 to 80%; in experiment [3] (first trial (Table 1)) it was 20 to 80%; in the experiment with Lolium perenne [4] (first trial (Table 1)), under 20%. Besides, the pest or weed control at 1000 g/ha lay within 20 to 80% in experiment [1] (first trial (Table 1)), 80 to 100% in the experiment on Lolium perenne [2] (first trial (Table 1)), 80 to 100% in experiment [3] (first trial (Table 1)) and 20 to 80% in the experiment with Lolium perenne [4] (first trial (Table 1)). Also, the pest or weed control at 5000 g/ha is 20 to 80% in experiment [1] (first trial (Table 1)), 80 to 100% in the experiment with Lolium perenne [2] (first trial (Table 1)), 80 to 100% in experiment [3] (first trial (Table 1)) and 80 to 100% in the experiment on Lolium perenne [4] (first trial (Table 1)).
With `C#CCN1C(=O)C2(CC2)Oc2cc(F)c(N3C(=O)c4ccc(F)cc4C3=O)cc21` [Example 5], the pest or weed control at 200 g/ha in experiment [1] (second trial (Table 2)) lay in the range of 80 to 100%; in the experiment on Lolium perenne [2] (second trial (Table 2)), 20 to 80%. Also, the pest or weed control at 1000 g/ha in experiment [1] (second trial (Table 2)) is 80 to 100%; in the experiment with Lolium perenne [2] (second trial (Table 2)), 20 to 80%; in experiment [3] (second trial (Table 2)) it was 80 to 100%; in the experiment on Lolium perenne [4] (second trial (Table 2)), 20 to 80%. Besides, the pest or weed control at 5000 g/ha (in experiment [1] (second trial (Table 2)); in the experiment with Lolium perenne [2] (second trial (Table 2)); in experiment [3] (second trial (Table 2)); in the experiment with Lolium perenne [4] (second trial (Table 2))) was 80 to 100% in each case.
Turning to `C#CCN1C(=O)C2(CC2)Oc2cc(F)c(N3C(=O)c4cccc(F)c4C3=O)cc21` [Example 6], the pest or weed control at 200 g/ha was 20 to 80% in experiment [1] (second trial (Table 2)), 20 to 80% in the experiment with Lolium perenne [2] (second trial (Table 2)), 20 to 80% in experiment [3] (second trial (Table 2)) and under 20% in the experiment with Lolium perenne [4] (second trial (Table 2)). The pest or weed control at 1000 g/ha in experiment [1] (second trial (Table 2)) is 80 to 100%; in the experiment on Lolium perenne [2] (second trial (Table 2)), 80 to 100%; in experiment [3] (second trial (Table 2)), 20 to 80%; in the experiment with Lolium perenne [4] (second trial (Table 2)), under 20%. For the same compound, the pest or weed control at 5000 g/ha lay within 80 to 100% in experiment [1] (second trial (Table 2)), 80 to 100% in the experiment on Lolium perenne [2] (second trial (Table 2)), 80 to 100% in experiment [3] (second trial (Table 2)) and 20 to 80% with Lolium perenne [4] (second trial (Table 2)).
As to `C#CCN1C(=O)C2(CC2)Oc2cc(F)c(N3C(=O)c4ccccc4C3=O)cc21` [Example 7], the pest or weed control at 200 g/ha was 80 to 100% in experiment [1] (second trial (Table 2)), under 20% in the experiment on Lolium perenne [2] (second trial (Table 2)), 80 to 100% in experiment [3] (second trial (Table 2)) and 20 to 80% with Lolium perenne [4] (second trial (Table 2)). For the same compound, the pest or weed control at 1000 g/ha was in the range of 80 to 100% in experiment [1] (second trial (Table 2)), 20 to 80% in the experiment with Lolium perenne [2] (second trial (Table 2)), 80 to 100% in experiment [3] (second trial (Table 2)) and 80 to 100% in the experiment on Lolium perenne [4] (second trial (Table 2)). Further, the pest or weed control at 5000 g/ha was in the range of 80 to 100% in experiment [1] (second trial (Table 2)), 20 to 80% in the experiment on Lolium perenne [2] (second trial (Table 2)), 80 to 100% in experiment [3] (second trial (Table 2)) and 80 to 100% with Lolium perenne [4] (second trial (Table 2)).
For `C#CCN1C(=O)C2(CC2)Oc2cc(F)c(N3C(=O)c4ccc(O)cc4C3=O)cc21` [Example 9], the pest or weed control at 200 g/ha (in experiment [1] (second trial (Table 2)); in the experiment with Lolium perenne [2] (second trial (Table 2)); in experiment [3] (second trial (Table 2)); in the experiment on Lolium perenne [4] (second trial (Table 2))) was under 20% each time. Moreover, the pest or weed control at 1000 g/ha (in experiment [1] (second trial (Table 2)); with Lolium perenne [2] (second trial (Table 2)); in experiment [3] (second trial (Table 2)); with Lolium perenne [4] (second trial (Table 2))) was under 20% throughout. Further, the pest or weed control at 5000 g/ha (in experiment [1] (second trial (Table 2)); in the experiment with Lolium perenne [2] (second trial (Table 2)); in experiment [3] (second trial (Table 2)); in the experiment with Lolium perenne [4] (second trial (Table 2))) was 20 to 80% each time.
With `C#CCN1C(=O)C2(CC2)Oc2cc(F)c(N3C(=O)c4ccc(OC)cc4C3=O)cc21` [Example 10], the pest or weed control at 200 g/ha was 20 to 80% in experiment [1] (second trial (Table 2)), under 20% with Lolium perenne [2] (second trial (Table 2)), 20 to 80% in experiment [3] (second trial (Table 2)) and under 20% in the experiment on Lolium perenne [4] (second trial (Table 2)). Also, the pest or weed control at 1000 g/ha was 80 to 100% in experiment [1] (second trial (Table 2)), under 20% with Lolium perenne [2] (second trial (Table 2)), 80 to 100% in experiment [3] (second trial (Table 2)) and under 20% with Lolium perenne [4] (second trial (Table 2)). Also, the pest or weed control at 5000 g/ha in experiment [1] (second trial (Table 2)) is 80 to 100%; in the experiment on Lolium perenne [2] (second trial (Table 2)) it was under 20%; in experiment [3] (second trial (Table 2)) it was 80 to 100%; in the experiment on Lolium perenne [4] (second trial (Table 2)), under 20%.
`C#CCN1C(=O)C2(CC2)Oc2cc(F)c(N3C(=O)C4CC4C3=O)cc21` (stereo not shown) [Example 13]: the pest or weed control at 200 g/ha was 80 to 100% in experiment [1] (second trial (Table 2)), under 20% in the experiment with Lolium perenne [2] (second trial (Table 2)), 20 to 80% in experiment [3] (second trial (Table 2)) and under 20% in the experiment with Lolium perenne [4] (second trial (Table 2)). The pest or weed control at 1000 g/ha is 80 to 100% in experiment [1] (second trial (Table 2)), under 20% in the experiment on Lolium perenne [2] (second trial (Table 2)), 80 to 100% in experiment [3] (second trial (Table 2)) and under 20% in the experiment with Lolium perenne [4] (second trial (Table 2)). Moreover, the pest or weed control at 5000 g/ha in experiment [1] (second trial (Table 2)) was 80 to 100%; in the experiment on Lolium perenne [2] (second trial (Table 2)), under 20%; in experiment [3] (second trial (Table 2)) it was 80 to 100%; with Lolium perenne [4] (second trial (Table 2)), 20 to 80%.
`C#CCN1C(=O)C2(CC2)Oc2cc(F)c(N3C(=O)C=C(C(F)(F)F)C3=O)cc21` [Example 14]: the pest or weed control at 200 g/ha (in experiment [1] (second trial (Table 2)); with Lolium perenne [2] (second trial (Table 2)); in experiment [3] (second trial (Table 2)); in the experiment on Lolium perenne [4] (second trial (Table 2))) was under 20% throughout. Also, the pest or weed control at 1000 g/ha (in experiment [1] (second trial (Table 2)); in the experiment with Lolium perenne [2] (second trial (Table 2)); in experiment [3] (second trial (Table 2)); in the experiment on Lolium perenne [4] (second trial (Table 2))) was under 20% throughout. The pest or weed control at 5000 g/ha (in experiment [1] (second trial (Table 2)); in the experiment on Lolium perenne [2] (second trial (Table 2)); in experiment [3] (second trial (Table 2)); in the experiment with Lolium perenne [4] (second trial (Table 2))) was under 20% each time.
